# Results: patent US20230022724A1, “NOVEL IMIDAZOPYRAZINE DERIVATIVES” (Hoffmann-La Roche Inc., priority 2018, published 2023)
# Where a name gives a salt, the structure may show the parent alone. Read-outs that look alike come from different tables or passages of the source.
# Tests used:
# [1] = system: Acinetobacter baumannii ATCC17961; test: Antimicrobial susceptibility testing: 90% growth inhibitory concentration (IC90) determination; format: cell-based; conditions: Acinetobacter baumannii ATCC17961, Iso-Sensitest broth, OD 600 nm over 16 h
# In short: (§1)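 Compounds in twofold series (e.g. 50 to 0.097 μM final) in Iso-Sensitest broth, inoculated at ~5×10^5 CFU/ml, incubated at 35±2° C. OD600 was read every 20 minutes for 16 h. IC90 was derived from growth inhibition during logarithmic phase.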
# [2] = system: Acinetobacter baumannii ATCC17978; test: as above; format: cell-based; conditions: read-out: ATCC17978 IC90
# In short: as §1
# [3] = Acinetobacter baumannii, ATCC17978, 16 h, 90% growth inhibitory concentration, Acinetobacter baumannii ATCC17978, Iso-Sensitest broth, OD 600 nm over 16 h
Compound,IC90 [1] [nM],also measured
"N#CCOc1ccc(-c2cnc3c(Nc4ccc(C(=O)N5CCN(C(=O)[C@@H]6C[C@@H](O)CN6)CC5)c(Cl)c4)nccn23)c(Cl)c1F [Example 33, 2-[3-chloro-4-[8-[3-chloro-4-[4-[(2S,4R)-4-hydroxypyrrolidine-2-carbonyl]piperazine-1-carbonyl]anilino]imidazo[1,2-a]pyrazin-3-yl]-2-fluoro-phenoxy]acetonitrile Formate]",33.9,
"COc1ccc(-c2cnc3c(Nc4ccc(C(=O)N5CCN(C(=O)[C@@H]6C[C@@H](O)CN6)CC5)c(Cl)c4)nccn23)c(F)c1F [Example 35, [2-chloro-4-[[3-(2,3-difluoro-4-methoxy-phenyl)imidazo[1,2-a]pyrazin-8-yl]amino]phenyl]-[4-[(2S,4R)-4-hydroxypyrrolidine-2-carbonyl]piperazin-1-yl]methanone formate]",41.2,
"COc1ccc(-c2cnc3c(Nc4cc(F)c(C(=O)N5CCN(C(=O)[C@@H]6C[C@@H](O)CN6)CC5)c(F)c4)nccn23)c(F)c1F [Example 49, (4-(4-((3-(2,3-difluoro-4-methoxyphenyl)imidazo[1,2-a]pyrazin-8-yl)amio)-2,6-difluorobenzoyl)piperazin-1-yl)((2S,4R)-4-hydroxypyrrolidin-2-yl)methanone dihydrochloride]",72.2,
"COc1ccc(-c2cnc3c(Nc4cc(F)c(C(=O)N5CCN(C(=O)[C@@H]6C[C@@H](O)CN6)CC5)c(Cl)c4)nccn23)c(F)c1F [Example 50, (4-(2-chloro-4-((3-(2,3-difluoro-4-methoxyphenyl)imidazo[1,2-a]pyrazin-8-yl)amino)-6-fluorobenzoyl)piperazin-1-yl)((2S,4R)-4-hydroxypyrrolidin-2-yl)methanone dihydrochloride]",82.1,
"CS(=O)(=O)C1CCN(CCN2CCN(C(=O)c3ccc(Nc4nccn5c(-c6ccc(OCC#N)c(F)c6F)cnc45)cc3Cl)CC2)C1 (centres unmarked) [Example 103, 2-[4-[8-[3-chloro-4-[4-[2-(3-methylsulfonylpyrrolidin-1-yl)ethyl]piperazine-1-carbonyl]anilino]imidazo[1,2-a]pyrazin-3-yl]-2,3-difluorophenoxy]acetonitrile; 2,2,2-trifluoroacetic acid]",,"IC90 ([2]; Acinetobacter baumannii, ATCC17978, 16 h): 180 nM"
"N#CCOc1ccc(-c2cnc3c(Nc4ccc(C(=O)N5CCN(CCN6CCC[C@H]6C(=O)O)CC5)c(Cl)c4)nccn23)c(F)c1F [Example 104, (2-(4-(2-chloro-4-((3-(4-(cyanomethoxy)-2,3-difluorophenyl)imidazo[1,2-a]pyrazin-8-yl)amino)benzoyl)piperazin-1-yl)ethyl)proline trifluoroacetate]",,"IC90 [2, 3]: 630 nM"
"N#CCOc1ccc(-c2cnc3c(Nc4ccc(C(=O)N5CCN(CCN6CC(c7nnn[nH]7)C6)CC5)c(Cl)c4)nccn23)c(F)c1F [Example 105, 2-(4-(8-((4-(4-(2-(3-(2H-tetrazol-5-yl)azetidin-1-yl)ethyl)piperazine-1-carbonyl)-3-chlorophenyl)amino)imidazo [1,2-a]pyrazin-3-yl)-2,3-difluorophenoxy)acetonitrile trifluoroacetate]",,"IC90 [2, 3]: 360 nM"
"COc1ccc(-c2cnc3c(Nc4ccc(C(=O)N5CCC(O)(CC(=O)N(C)C)CC5)c(Cl)c4)nccn23)cc1F [Example 106, 2-(1-(2-chloro-4-((3-(3-fluoro-4-methoxyphenyl)imidazo[1,2-a]pyrazin-8-yl)amino)benzoyl)-4-hydroxypiperidin-4-yl)-N,N-dimethylacetamide]",,"IC90 [2, 3]: 540 nM"
"COc1ccc(-c2cnc3c(Nc4ccc(C(=O)N5CCC(C(=O)NC[C@H](O)[C@@H](O)[C@H](O)[C@H](O)CO)CC5)c(Cl)c4)nccn23)cc1F [Example 107, 1-(2-chloro-4-((3-(3-fluoro-4-methoxyphenyl)imidazo[1,2-a]pyrazin-8-yl)amino)benzoyl)-N-((2S,3R,4R,5R)-2,3,4,5,6-pentahydroxyhexyl)piperidine-4-carboxamide]",,"IC90 [2, 3]: 260 nM"
"COc1ccc(-c2cnc3c(Nc4cc(F)c(C(=O)N5CCN(C(=O)[C@@H]6C[C@@H](O)CN6)CC5)c(Br)c4)nccn23)c(F)c1F [Example 109, (4-(2-bromo-4-((3-(2,3-difluoro-4-methoxyphenyl)imidazo[1,2-a]pyrazin-8-yl)amino)-6-fluorobenzoyl)piperazin-1-yl)((2S,4R)-4-hydroxypyrrolidin-2-yl)methanone dihydrochloride]",69,
"CNCC1(O)CCN(C(=O)c2ccc(Nc3nccn4c(-c5ccc(OC)c(F)c5)cnc34)cc2Cl)CC1 [Example 110, (2-chloro-4-((3-(3-fluoro-4-methoxyphenyl)imidazo[1,2-a]pyrazin-8-yl)amino)phenyl)(4-hydroxy-4-((methylamino)methyl)piperidin-1-yl)methanone]",80,
"CNCC1(O)CCN(C(=O)c2ccc(Nc3nccn4c(-c5ccc(OC)c(F)c5F)cnc34)cc2Cl)CC1 [Example 111, (2-chloro-4-((3-(2,3-difluoro-4-methoxyphenyl)imidazo[1,2-a]pyrazin-8-yl)amino)phenyl)(4-hydroxy-4-((methylamino)methyl)piperidin-1-yl)methanone]",68,
"(R)-1-(2-chloro-4-((3-(3-fluoro-4-methoxyphenyl)imidazo[1,2-a]pyrazin-8-yl)amino)benzoyl)-N-(pyrrolidin-3-yl)piperidin-4-carboxamide hydrochlroide [Example 17]",,"IC90 ([2]; 90% growth inhibitory concentration, Acinetobacter baumannii ATCC17978, Iso-Sensitest broth, OD 600 nm over 16 h): 220 nM"

# More lines, main results first:
IC90 [1] [nM],Compound,also measured
350,"N#CCOc1ccc(-c2cnc3c(Nc4ccc(C(=O)N5CCN(C(=O)CN6CCC(C(=O)O)C6)CC5)c(Cl)c4)nccn23)c(F)c1F (centres unmarked) [Example 108, 1-(2-(4-(2-chloro-4-((3-(4-(cyanomethoxy)-2,3-difluorophenyl)imidazo[1,2-a]pyrazin-8-yl)amino)benzoyl)piperazin-1-yl)-2-oxoethyl)pyrrolidine-3-carboxylic acid trifluoroacetate]",
22,"O=C(c1ccc(Nc2nccn3c(-c4ccc(OCF)c(F)c4F)cnc23)cc1Cl)N1CCN(C(=O)[C@@H]2C[C@@H](O)CN2)CC1 [Example 112, [2-chloro-4-[[3-[2,3-difluoro-4-(fluoromethoxy)phenyl]imidazo [1,2-a]pyrazin-8-yl]amino]phenyl]-[4-[(2S,4R)-4-hydroxypyrrolidine-2-carbonyl]piperazin-1-yl]methanone trifluoroacetate]",
22,"O=C(c1ccc(Nc2nccn3c(-c4ccc(OC(F)F)c(F)c4F)cnc23)cc1Cl)N1CCN(C(=O)[C@@H]2C[C@@H](O)CN2)CC1 [Example 113, [2-chloro-4-[[3-[4-(difluoromethoxy)-2,3-difluoro-phenyl]imidazo[1,2-a]pyrazin-8-yl]amino]phenyl]-[4-[(2S,4R)-4-hydroxypyrrolidine-2-carbonyl]piperazin-1-yl]methanone formate]",
56,"O=C(c1ccc(Nc2nccn3c(-c4ccc(OC(F)F)c(F)c4F)cnc23)cc1F)N1CCN(C(=O)C2CCN(CC3CCNC3)CC2)CC1 (centres unmarked) [Example 114, (4-(4-((3-(4-(difluoromethoxy)-2,3-difluorophenyl)imidazo[1,2-a]pyrazin-8-yl)amino)-2-fluorobenzoyl)piperazin-1-yl)(1-(pyrrolidin-3-ylmethyl)piperidin-4-yl)methanone bis(2,2,2-trifluoroacetate)]",
